Laboratory results from article PMC9182007, “Statistical Methods in the Study of Protein Binding and Its Relationship to Drug Bioavailability in Breast Milk” (Molecules, 2022).
Where two headings read alike, the source gives them in different places.

What was measured:
[1] = Milk-to-plasma (M/P) drug concentration ratio obtained in vivo, from literature; design: species or system human; settings: Table S1, scale of drug penetration into milk 1-4
[2] = biological target: T1, bovine serum albumin (BSA) (Bos taurus, UniProt P02769); assay: NP TLC on plates impregnated with bovine serum albumin; format: binding; settings: Table S3, NP plate impregnated with 2 mg/mL BSA; pH 7.4 mobile phase
T1 construct: purchased Sigma Aldrich
T1 sequence (P02769 25-607): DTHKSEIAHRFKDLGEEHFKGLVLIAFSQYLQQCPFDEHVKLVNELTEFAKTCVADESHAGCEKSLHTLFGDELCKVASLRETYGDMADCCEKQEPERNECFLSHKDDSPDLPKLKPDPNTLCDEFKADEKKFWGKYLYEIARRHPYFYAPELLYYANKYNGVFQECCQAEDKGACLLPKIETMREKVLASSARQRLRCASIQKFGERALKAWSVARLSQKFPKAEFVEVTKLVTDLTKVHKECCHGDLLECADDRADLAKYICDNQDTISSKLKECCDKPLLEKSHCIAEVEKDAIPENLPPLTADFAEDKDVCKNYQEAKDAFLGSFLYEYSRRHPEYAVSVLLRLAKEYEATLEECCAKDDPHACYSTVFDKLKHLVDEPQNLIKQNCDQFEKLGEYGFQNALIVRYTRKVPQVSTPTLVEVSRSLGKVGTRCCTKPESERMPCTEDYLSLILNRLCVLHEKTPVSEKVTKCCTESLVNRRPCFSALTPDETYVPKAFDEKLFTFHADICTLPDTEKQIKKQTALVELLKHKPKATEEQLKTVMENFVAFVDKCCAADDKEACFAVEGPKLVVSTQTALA
Description: Chromatographic descriptors were obtained in experiments, thin layer chromatography in normal (NP TLC) and reversed mode (RP TLC). The stationary phase was modified with bovine serum albumin (BSA). TLC was the source of retention factor (Rf) values, denoted in statistical models as NP and RP.
(§1) For TLC chromatography, glass plates 20 × 20 cm from Merck, covered with silica gel with the addition of a fluorescent indicator, were used. Normal phase (NP) plates were used with standard Merck TLC Silica gel 60 F254 plates, while in reverse phase (RP) silanized plates RP-2: Merck TLC Silica gel 60 RP-2 F254 were used.
The stationary phase of the plates, both NP and RP, was modified with an aqueous solution of bovine serum albumin purchased from Sigma Aldrich (bovine serum albumin, lyophilized powder).
The impregnation of the plates was carried out with a 2 mg/mL solution applied to the surface using a Desaga SG 1 hand sprayer; the plates were then air dried. […] Normal and reversed phase thin layer chromatography (NP TLC and RP TLC respectively) was performed using silica-gel-coated glass plates. Half of them were covered with 2 mg/mL bovine serum albumin solution and half remained pure.
(§2) The mobility of the compounds was also determined on the plates with no protein as a modifier. […] The acetate buffer (20 mM) was prepared by dissolving 1.54 g of ammonium acetate in 1 L of distilled water. The pH was then adjusted with a concentrated ammonia solution using a pH meter. The plates were developed in standard, vertical chromatographic chambers, each time using 100 mL of the mobile phase, after the chamber was previously saturated with solvent vapors for approximately 1 h.
(§3) The unfolded-protein-impregnated plates and the control plates were scanned with a Desaga CD 60 densitometer. The values of the delay factor (Rf) were collected, i.e., the ratio of the distance traveled by the substance to be analyzed to the distance traveled through the front of the mobile phase. […] The experiment was repeated (for both BSA-coated and control plates) and the Rf values pooled are the mean of both series of experiments.

[3] = biological target: T1, bovine serum albumin (BSA); assay: RP TLC on plates impregnated with bovine serum albumin; format: binding; settings: Table S4, RP plate impregnated with 2 mg/mL BSA; pH 7.4 mobile phase
[4] = NP TLC on non-impregnated control plates; format: physicochemical; settings: Table S3, non-impregnated NP plate; acetonitrile/acetate buffer pH 7.4/methanol 60:20:20
Protocol: as §1
(§4) Normal and reversed phase thin layer chromatography (NP TLC and RP TLC respectively) was performed using silica-gel-coated glass plates. Half of them were covered with 2 mg/mL bovine serum albumin solution and half remained pure.
as §2, §3

[5] = RP TLC on non-impregnated control plates; format: physicochemical; settings: Table S4, non-impregnated RP plate; acetonitrile/acetate buffer pH 7.4/methanol 60:20:20
Protocol: as §1, §4, §2, §3

[6] = HPLC on immobilized artificial membrane column (HPLCIAM); format: physicochemical; settings: for log k IAM: Table S5, IAM column, pH 7.4; for k IAM: Table S5, retention factor, IAM column, phosphate buffer pH 7.4/acetonitrile 80:20
Protocol: (§5) High performance liquid chromatography was performed using immobilized human serum albumin column (HPLCHSA) and immobilized artificial membrane (HPLCIAM). HPLC was the source of the log k values (logarithm of retention factor), log kHSA and log kIAM.
The second experiment was performed using an immobilized artificial membrane (IAM) column. The assay was also performed on a Perkin Elmer Series 200 instrument connected to a UV-VIS spectrometer as the detector. The analytical wavelength was the same for all compounds, at 210 nm. […] The mobile phase was a mixture of 10 mM phosphate buffer pH 7.4 and acetonitrile in the ratio 80:20 (v/v). The phosphate buffer was obtained by dissolving the finished tablet in the appropriate amount of distilled water (1 tablet per 200 mL). In this case, it was not necessary to adjust the pH of the buffer using a pH meter.
The phase flow through the system was set to 0.5 mL/min as recommended by the column manufacturer. The solutions were delivered to the column using an autosampler syringe, the injection size was 10 µL.
The experiment was then repeated and the collected retention rates were the mean values of both series.

[7] = biological target: T2, human serum albumin (HSA) (Homo sapiens, UniProt P02768)
T2 sequence (P02768 25-609): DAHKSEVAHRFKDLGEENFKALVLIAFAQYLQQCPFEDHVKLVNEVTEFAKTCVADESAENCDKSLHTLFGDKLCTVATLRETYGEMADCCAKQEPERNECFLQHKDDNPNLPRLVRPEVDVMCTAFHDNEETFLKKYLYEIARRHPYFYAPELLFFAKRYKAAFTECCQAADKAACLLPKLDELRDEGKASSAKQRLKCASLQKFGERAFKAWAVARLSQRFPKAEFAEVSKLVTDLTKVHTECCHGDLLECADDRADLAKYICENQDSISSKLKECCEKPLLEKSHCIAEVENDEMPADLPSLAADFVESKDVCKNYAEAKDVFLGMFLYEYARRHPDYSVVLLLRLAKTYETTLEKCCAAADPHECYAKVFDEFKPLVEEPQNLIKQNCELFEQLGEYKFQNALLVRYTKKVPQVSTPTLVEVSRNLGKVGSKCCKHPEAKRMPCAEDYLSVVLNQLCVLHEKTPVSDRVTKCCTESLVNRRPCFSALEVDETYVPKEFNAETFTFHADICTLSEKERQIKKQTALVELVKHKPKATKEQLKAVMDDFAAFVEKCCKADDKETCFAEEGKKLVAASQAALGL
Protocol: as §5
(§6) High performance liquid chromatography was performed using a chromatography column with immobilized human serum albumin. The assay was performed on a Perkin Elmer Series 200 instrument connected to a UV-VIS spectrometer as detector. The analytical wavelength was the same for all compounds at 210 nm. […] The acetate buffer was prepared by dissolving 0.77 g of ammonium acetate in 1 L of distilled water. The pH was then adjusted with a concentrated ammonia solution using a pH meter.
(§7) The phase flow through the system was set to 0.9 mL/min as recommended by the column manufacturer. The solutions were delivered to the column using an autosampler syringe, the injection size was 10 µL. Since the column could not be thermostated, the room was kept at a constant temperature of 25 degrees Celsius.
(§8) Chromatographic data (retention coefficient, k, and derivative, log k) were obtained with TotalChrom software connected to an HPLC instrument. […] The experiment was then repeated and the collected retention rates were the mean values of both series.

[8] = biological target: T2, human serum albumin (HSA); assay: in vitro; settings: immobilized hsa column, pH 7.4
Protocol: as §5, §6, §7, §8

[9] = Table S1, milk/plasma drug concentration ratio, in vivo; cited from earlier work
plasma protein = settings: Table S1, plasma protein binding given as fraction; ref DrugBank [7]; cited from earlier work
[10] = Table S1, coded 1/0; ref DrugBank [7]; cited from earlier work
[11] = Table S5, retention factor, HSA column, pH 7.4, 25 degrees Celsius
[12] = human, immobilized hsa column, pH 7.4

SMILES	M/P code [1]	NP (Rf, BSA-impregnated NP plate) [2]	RP (Rf, BSA-impregnated RP plate) [3]	CNP (Rf, control NP plate) [4]	CRP (Rf, control RP plate) [5]	log k IAM [6]	k IAM [6]	k HSA [7, 11]	chromatographic logD [8]	M/P [9]	PB (plasma protein)	CNS+/- [10]	log k HSA ([7]; Table S5, HSA, pH 7.4)	log k HSA [7, 12]	k HSA ([7]; pH 7.4)
CC(=O)Oc1ccccc1C(=O)O [acetylsalicylic acid]	3 (3 range 0.81–1.20—possibly over the safety limit)	0.90	0.99	0.89	0.98	-1.52	0.03	0.31	-0.51	1.08	0.995	1	–	–	–
Cc1ccc(-c2cc(C(F)(F)F)nn2-c2ccc(S(N)(=O)=O)cc2)cc1 [celecoxib]	2 (2 corresponds to the range of 0.40–0.80—at the safety limit)	0.99	0.75	0.98	0.75	1.70	50.01	13.42	–	0.41	0.97	1	1.13	–	–
COc1cc(N)c(Cl)cc1C(=O)NC1CCN(CCCOc2ccc(F)cc2)CC1OC (stereo not shown) [cisapride]	1 (Code 1 corresponds to drugs with an M/P value <0.40—completely safe)	0.63	0.62	0.64	0.65	1.76	57.99	4.88	–	0.045	0.975	1	–	0.69	–
O=C(O)C1N=C(c2ccccc2)c2cc(Cl)ccc2NC1=O (stereo not shown) [clorazepate]	1 (Code 1 corresponds to drugs with an M/P value <0.40—completely safe)	0.94	0.81	0.94	0.81	0.69	4.88	–	0.6	0.2	0.975	–	–	–	3.99
C[C@H]1c2cccc(O)c2C(=O)C2=C(O)[C@]3(O)C(=O)C(C(N)=O)=C(O)[C@@H](N(C)C)[C@@H]3[C@@H](O)[C@@H]21 [doxycycline]	1 (Code 1 corresponds to drugs with an M/P value <0.40—completely safe)	0.05	0.09	0.06	0.08	0.24	1.76	1.68	0.23	0.34	0.9	0	–	–	–
CCOC(=O)[C@H](CCc1ccccc1)N[C@@H](C)C(=O)N1CCC[C@H]1C(=O)O [enalapril]	1 (Code 1 corresponds to drugs with an M/P value <0.40—completely safe)	0.33	0.58	0.33	0.60	-1.29	0.05	0.34	-0.47	0.02	0.55	0	–	–	–
OCCN1CCN(CCC=C2c3ccccc3Sc3ccc(C(F)(F)F)cc32)CC1 [flupenthixol]	3 (3 range 0.81–1.20—possibly over the safety limit)	0.52	0.66	0.51	0.66	1.71	51.21	15.36	1.19	1.15	0.95	1	–	–	–
C[C@](N)(Cc1ccc(O)c(O)c1)C(=O)O [methyldopa]	1 (Code 1 corresponds to drugs with an M/P value <0.40—completely safe)	0.37	0.86	0.38	0.85	-1.02	0.10	0.36	-0.44	0.265	0.2	0	–	–	–
Fc1ccc([C@@H]2CCNC[C@H]2COc2ccc3c(c2)OCO3)cc1 [paroxetine]	2 (2 corresponds to the range of 0.40–0.80—at the safety limit)	0.56	0.67	0.55	0.60	2.06	115.77	5.96	–	0.675	0.94	1	0.78	–	–
CN1C(C(=O)Nc2ccccn2)=C(O)c2ccccc2S1(=O)=O [piroxicam]	1 (Code 1 corresponds to drugs with an M/P value <0.40—completely safe)	0.98	0.60	0.98	0.58	-0.79	0.16	32.92	1.52	0.02	–	0	–	–	–
CCOC(=O)[C@H](CCc1ccccc1)N[C@@H](C)C(=O)N1Cc2ccccc2C[C@H]1C(=O)O [quinapril]	1 (Code 1 corresponds to drugs with an M/P value <0.40—completely safe)	0.44	0.56	0.44	0.57	0.09	1.22	3.1	–	0.12	0.97	0	–	0.49	–
O=c1n(CCCN2CCN(c3cccc(Cl)c3)CC2)nc2ccccn12 [trazodone]	2 (2 corresponds to the range of 0.40–0.80—at the safety limit)	0.72	0.74	0.71	0.76	0.97	9.30	2.22	0.35	0.53	0.92	1	–	–	–
CN1CCN(C(=O)OC2c3nccnc3C(=O)N2c2ccc(Cl)cn2)CC1 (stereo not shown) [zopiclone]	2 (2 corresponds to the range of 0.40–0.80—at the safety limit)	0.96	0.83	0.96	0.84	-0.04	0.91	–	-0.12	0.51	0.45	–	–	–	0.76
OCCN1CCN(CC/C=C2/c3ccccc3Sc3ccc(Cl)cc32)CC1 [zuclopenthixol]	1 (Code 1 corresponds to drugs with an M/P value <0.40—completely safe)	0.47	–	0.47	–	1.69	48.73	16.18	1.21	0.37	0.985	1	–	–	–
